Reference: PubChem BioAssay (NCI)
Where “and” joins values, the source holds several entries; their conditions need not be identical. Equal values may be shown once.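 96-well plates; 48 h exposure; 5 concentrations. Endpoints by linear interpolation between flanking doses. Not reached: highest tested concentration assigned. GI50: concentration for 50% inhibition of growth. TGI: total growth inhibition.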

Tests used:
Assay in all cases: growth of human tumour cells (NCI), 48 h
[1] = tested on: MDA-MB-435
[2] = tested on: IGROV1 ovarian
[3] = tested on: NCI-H226 lung
[4] = tested on: MCF7 breast
[5] = tested on: SNB-19 CNS
[6] = tested on: U251 CNS
[7] = tested on: OVCAR-8 ovarian
[8] = tested on: 786-0 renal
[9] = tested on: BT-549 breast
[10] = tested on: NCI/ADR-RES ovarian

| SMILES | GI50 [1] | TGI [1] | GI50 [2] | TGI [2] | GI50 [3] | TGI [3] | GI50 [4] | TGI [4] | GI50 [5] | TGI [5] | GI50 [6] | TGI [6] | GI50 [7] | TGI [7] | GI50 [8] | TGI [8] | GI50 [9] | TGI [9] | GI50 [10] | TGI [10] |
| --- | --- | --- | --- | --- | --- | --- | --- | --- | --- | --- | --- | --- | --- | --- | --- | --- | --- | --- | --- | --- |
| NC1=NC(c2ccccc2)N=C(Nc2ccccc2)N1 (stereo not given) | 34.5 µM | > 100 µM | 39.4 µM | > 100 µM | > 100 µM | > 100 µM | 38.5 µM | > 100 µM | > 100 µM | > 100 µM | 42.1 µM | > 100 µM | > 100 µM | > 100 µM | > 100 µM | > 100 µM | > 100 µM | > 100 µM | > 100 µM | > 100 µM |
| COC(=O)[C@]12CC[C@@H](C)[C@H](C)[C@@H]1C1=CC[C@@H]3[C@@]4(C)C(C=O)=C[C@@](C)(COC(C)=O)[C@@H]4[C@H](O)C[C@@]3(C)[C@]1(C)CC2 | 2.09 µM | 5.04 µM | 2.95 µM | 9.7 µM | 1.95 µM | 4.8 µM | 1.94 µM | 5.51 µM | 3.22 µM | 14.8 µM | 1.92 µM | 4.36 µM | 3.03 µM | 10.4 µM | 1.89 µM | 4.26 µM | 2.03 µM | 5.11 µM | 2.79 µM | 9.73 µM |
| C/C=C(\C)C(=O)O[C@@H]1C(O)[C@H]2OC(COC(=O)CCC(=O)CCCCCC[C@H](CCCCC)O[C@@H]3OC(C)[C@H](OC(C)=O)C(O)[C@H]3O2)[C@H]1OC(=O)/C=C/c1ccccc1 (stereo not given in full) | < 0.01 µM | 4.68 µM | < 0.0163 µM | 17.9 µM | 0.0643 µM | 7.38 µM | < 0.01 µM | 17.3 µM | 0.156 µM | 15.5 µM | < 0.01 µM | 6.39 µM | < 0.0341 µM | > 51.4 µM | 0.028 µM | 7.61 µM | 0.019 µM | 13.8 µM | 0.336 µM | > 100 µM |
| COc1cc2c3c(n(CCN)c(=O)c2cc1OC)-c1cc2c(cc1C3=O)OCO2 | 1.04 µM | 2.78 µM | 1.53 µM | 4.74 µM | 0.769 µM | 2.55 µM | 0.0832 µM | 2.98 µM | 1.5 µM | > 100 µM | 0.367 µM |  | 1.12 µM |  | 0.14 µM | 0.502 µM | 0.959 µM | 3.01 µM | 0.152 µM | 0.808 µM |
| COc1cc2cc(Oc3ccc(NC(=O)Nc4ccccc4)cc3)c(C)nc2cc1OCCN1CCCCC1 | 5.55 µM | 10.1 µM | 5.68 µM | 11 µM | 5.82 µM | 12 µM | 5.14 µM | 10 µM | 5.77 µM | 11 µM | 5.32 µM | 11.4 µM | 6.26 µM | 15.3 µM | 5.58 µM | 11.1 µM | 5.63 µM | 11.2 µM | 6.54 µM | 14.5 µM |
| COc1cc(-c2oc3c(OC)c(OC)cc(O)c3c(=O)c2OC)ccc1O |  | > 50 µM |  | > 100 µM and 35.5 µM | 3.88 µM and 12.4 µM | 9.68 µM and > 50 µM |  | > 50 µM |  | > 100 µM | 5.97 µM and 12.7 µM | > 100 µM |  | > 50 µM |  | > 100 µM |  | 35.7 µM |  | > 50 µM |
| CCC(=O)OC1CCn2c1nc1c2C(=O)C(C)=C(N2CC2)C1=O (stereo not given) |  | 0.0922 µM | 0.0573 µM | 0.237 µM and 1.25 µM | 0.186 µM | 0.441 µM and 0.319 µM |  | 0.0569 µM | 0.0441 µM | 1.16 µM and 0.697 µM | 0.0733 µM | 0.484 µM and 0.576 µM | 0.0327 µM | 0.338 µM and 0.211 µM | 0.017 µM |  |  | 0.192 µM |  | 0.4 µM |
| O=c1cccc(C#Cc2ccccc2)o1 | 6.89 µM | 24.9 µM | 9.58 µM | > 87.3 µM | 13.2 µM | > 36.3 µM | 4.37 µM | > 100 µM | 10.5 µM | 37.6 µM | 9.2 µM | > 36.4 µM | > 22.8 µM | > 100 µM | 2.2 µM | 15 µM | 2.57 µM | 12.2 µM | 7.11 µM | > 26.6 µM |
| O=S(=O)(NC(=S)Nc1ccccc1)c1ccc(N2N=C3c4ccccc4CC3C2c2cccs2)cc1 (stereo not given) | 19.4 µM | 45.6 µM | 65.3 µM | > 100 µM | 27.2 µM | 55.4 µM | 3.7 µM | > 100 µM | 33.8 µM | > 100 µM | 26.2 µM | 76.7 µM | 39 µM | > 100 µM | 19.7 µM | 40.4 µM | 24.6 µM | 66.2 µM | 19.3 µM | 44.5 µM |
| COC(=O)c1ccc(=O)c2nc3/c(=C/O)c(O)cc(=O)c3[nH]c12 | 0.559 µM | 23.7 µM and 13.2 µM | 0.469 µM | 3.31 µM and 17.5 µM | 0.726 µM | 12.2 µM and 12.8 µM | 0.652 µM | 17.5 µM and 22.8 µM | 1.28 µM | 32.2 µM and 20.4 µM | 0.176 µM | 28.6 µM and 12.3 µM | 0.364 µM | 2.95 µM and 24.9 µM | 1.52 µM | 23.8 µM and 17.9 µM | 0.347 µM | 6.14 µM and 12.1 µM | 0.379 µM | > 33.6 µM and 13.8 µM |
